Consider one compound from US9649313B2, “Use of ITK inhibitors for the treatment of cancer” (The University of North Carolina at Chapel Hill, priority 2012, dated 2017).

Molecules are shown by their SMILES.

Data set [1] has as its system primary melanoma in the PTEN/BRAF GEMM. The data set is described as follows: PTEN/BRAF GEMM primary melanoma model. In kind it is in vivo, mice. The text has this:
FIG. 7A-7B Effects of BI 10N inhibitor on growth of primary melanoma in the PTEN/BRAF GEMM. A primary melanoma tumor from the PTEN/BRAF mouse GEMM untreated with inhibitors stained with acid fast red for ITK using ITK antibody (Abeam cat#ab32113) (data not shown). A PTEN/BRAF mouse model was used for these in vivo studies. The mice were painted with 4HT (4-hydroxy-tamoxifen) at the base of their tails and within about 4 weeks, 4 mm×4 mm melanomas were typically present in each mouse. The animals were then divided into treatment or no treatment groups. FIG. 7A) Animals were treated as described in panel B, then placed on BI 10N BI 10N at 15 MPK or not treated. Mice were followed for 7 weeks and their tumors were measured once a week to assess tumor volume as described in the Materials and Methods. FIG. 7B) Effect of BI 10N on tumor growth (mean and standard error of mean) in the PTEN/BRAF GEMM. […] The effects of AZD6244 and PLX4032 on tumor growth are also shown. Samples sizes are indicated in parentheses.
All animal studies were approved by UNC-CH Institute for Animal Care and Use Committee prior to study start. PTEN/BRAF mice were bred in house, and tumors were induced with 1 ul of 20 mM Tamoxafen at 4 weeks near the base of the tail as previously described (Dankort et al., 2009 Nat Genet 41(5): 544-52). […]

The conditions of data set [2]: Riether et al., 2009; cited from earlier work.
The test system of data set [3] is PMWK (ITKLO) melanoma cell line. Nature of the data set: single cell motility assay. In kind it is cell-based, Human. The text has this: (§1) FIG. 4A-4E. Effects of ITK knockdown on proliferation and motility of melanoma cells. FIG. 4A) Western of lysates of VMM 39 containing each of the four shRNA constructs using rabbit monoclonal anti ITK (Y401). FIG. 4B) The four shRNA lentiviral constructs were used to transduce three melanoma cell lines, PMWK (ITKLO), VMM 39 (ITKHI), and RPMI 8322 (ITKHI). 50,000 cells were placed into each well of a 6 well plate, which was then counted 3, 5, and 6, or 7 days after plating to assess the proliferation rates of the different cell lines. FIG. 4C) Single Cell Motility assays were performed on three different melanoma cell lines, PMWK, VMM 39, and RPMI 8322. Each melanoma cell line was transduced with the four shRNA lentiviral constructs producing a total of 12 cell lines. 10,000 cells were plated on fibronectin coated glass bottom dishes. Pictures were taken once every 40 minutes for 16 hours. FIG. 4D) Cell cycle analysis of PMWK, VMM 39, and RPMI 8322 cells that have been transduced with various shRNAs. Cells were harvested after 3 hours of incubation with 5-ethynyl-2′-deoxyuridine (EdU). EdU incorporation and DNA content with FxCycle Violet were analyzed using flow cytometry. Illustrated in this panel are the percentages of cells in G0/G1 (low DNA and EdU content), S (high EdU and low-to-medium DNA content), and G2/M (Low EdU and high DNA content). FIG. 4E) Single-cell motility analysis of PMWK, VMM 39, and RPMI 8322 that have been transduced with various shRNAs. At least 50 cells were tracked for each cell line and the average motility rate was determined. Shown with asterisks are the shRNA-transduced melanoma cell lines with significant impairment in motility (P<0.001 one-way ANOVA following Bonferroni adjustments for multiple comparisons).
(§2) FIG. 5A-5C. Effects of BI 10N inhibitor on proliferation and motility of melanoma cells. FIG. 5A) Cell motility assays were performed as described in FIG. 4A-4E; however, the inhibitor BI 10N was added to the media to decrease ITK kinase activity in parental cell lines instead of using the shRNA ITK knockdown cell lines. BI 10N was added to the media 24 hours prior to the start of the motility assay and the VivaView camera system was used to image cellular motility of the melanoma cells as described previously. […] Cells were trypsinized and counted using the Invitrogen Countess. […] The cells were counted with the Invitrogen Countess at 3, 5, and 6 or 7 days after plating to assess the proliferation rates of the different cell lines in the presence of BI 10N. […] Following 3 days of BI 10N treatment, the cells were incubated with EdU for 3 hours and were subsequently assessed for 5-ethynyl-2′-deoxyuridine (EdU) incorporation rate and DNA content with FxCycle Violet. […]

Data set [4] relates to VMM 39 (ITKHI) melanoma cell line. Nature of the data set: single cell motility assay. The settings on record: VMM39; 10-25 nM. The data set is classed as cell-based, Human.
Source text: as §1, §2

Data set [5] deals with RPMI 8322 (ITKHI) melanoma cell line. The data set is described as follows: single cell motility assay. The data set is classed as cell-based, Human. The settings on record: 10-25 nM.
Source text: as §1, §2

Data set [6] relates to ERK and AKT activation status in RPMI 8322 cells. Nature of the data set: western blot of ERK and AKT activation. The data set is classed as cell-based, Human. The following applies: concentrations as high as 50 nM, 3 days. How it is done:
FIG. 9. Western blots of phospho-ERK and phospho-AKT.
To investigate the impact of ITK inhibition by BI 10N on the ERK and AKT signaling pathways, which are frequently misregulated in melanoma, the ITKHI melanoma cell lines (VMM 39 and RPMI 8322) were grown in the presence of increasing BI 10N concentrations. Western blot analysis was performed on whole cell lysates from these cells using antibodies against ERK, pERK^Thr202/Tyr204, AKT, and pAKT^Ser473.
(In general: In western blotting, separated proteins are transferred to a membrane and probed.)

Consider `CC(C)C(C)CNCc1ccc2c(c1)[nH]/c(=N\C(=O)c1ccc(C3=CN=NC3)s1)n2CC(C)(C)O` (centres unmarked) [BI 10N], for which the “tumor growth compared with AZD6244 and PLX4032” value in data set [1] (PTEN/BRAF GEMM, FIG. 7B) was “performs better in vivo than MEK inhibitor AZD6244 (selumentinib) and V600E BRAF inhibitor PLX4032 (vemurafenib)”. Further, the progression of tumors result in data set [1] (PTEN/BRAF mice, 15 mg per kg, compared to the no treatment group) is listed as “profoundly retarded the progression of tumors”. Also, the “F value (bioavailable in mice)” value in data set [2] is given as 21%. For the same compound, the “concentration required for smaller changes in migration” value in data set [3] is at least 150 nM. Besides, the effect on migration entry in data set [3] (10-25 nM) is reported as “do not decrease”. Moreover, the decrease in migration entry in data set [4] and in data set [5] was “about 50%” in each case. Besides, the “activation status of ERK and AKT” value in data set [6] is on record as “No significant effects”.
